Measured values: the Kinase Knowledgebase extract (Sharma et al. 2016)

Tests used:
EGFR = EGFR (UniProt P00533); details: concentration not given here
EGFR (Hamster) = EGFR (Hamster) (UniProt P00533); details: er22, dose or concentration not given here
Sequence of EGFR (Hamster) (P00533 whole entry, looked up): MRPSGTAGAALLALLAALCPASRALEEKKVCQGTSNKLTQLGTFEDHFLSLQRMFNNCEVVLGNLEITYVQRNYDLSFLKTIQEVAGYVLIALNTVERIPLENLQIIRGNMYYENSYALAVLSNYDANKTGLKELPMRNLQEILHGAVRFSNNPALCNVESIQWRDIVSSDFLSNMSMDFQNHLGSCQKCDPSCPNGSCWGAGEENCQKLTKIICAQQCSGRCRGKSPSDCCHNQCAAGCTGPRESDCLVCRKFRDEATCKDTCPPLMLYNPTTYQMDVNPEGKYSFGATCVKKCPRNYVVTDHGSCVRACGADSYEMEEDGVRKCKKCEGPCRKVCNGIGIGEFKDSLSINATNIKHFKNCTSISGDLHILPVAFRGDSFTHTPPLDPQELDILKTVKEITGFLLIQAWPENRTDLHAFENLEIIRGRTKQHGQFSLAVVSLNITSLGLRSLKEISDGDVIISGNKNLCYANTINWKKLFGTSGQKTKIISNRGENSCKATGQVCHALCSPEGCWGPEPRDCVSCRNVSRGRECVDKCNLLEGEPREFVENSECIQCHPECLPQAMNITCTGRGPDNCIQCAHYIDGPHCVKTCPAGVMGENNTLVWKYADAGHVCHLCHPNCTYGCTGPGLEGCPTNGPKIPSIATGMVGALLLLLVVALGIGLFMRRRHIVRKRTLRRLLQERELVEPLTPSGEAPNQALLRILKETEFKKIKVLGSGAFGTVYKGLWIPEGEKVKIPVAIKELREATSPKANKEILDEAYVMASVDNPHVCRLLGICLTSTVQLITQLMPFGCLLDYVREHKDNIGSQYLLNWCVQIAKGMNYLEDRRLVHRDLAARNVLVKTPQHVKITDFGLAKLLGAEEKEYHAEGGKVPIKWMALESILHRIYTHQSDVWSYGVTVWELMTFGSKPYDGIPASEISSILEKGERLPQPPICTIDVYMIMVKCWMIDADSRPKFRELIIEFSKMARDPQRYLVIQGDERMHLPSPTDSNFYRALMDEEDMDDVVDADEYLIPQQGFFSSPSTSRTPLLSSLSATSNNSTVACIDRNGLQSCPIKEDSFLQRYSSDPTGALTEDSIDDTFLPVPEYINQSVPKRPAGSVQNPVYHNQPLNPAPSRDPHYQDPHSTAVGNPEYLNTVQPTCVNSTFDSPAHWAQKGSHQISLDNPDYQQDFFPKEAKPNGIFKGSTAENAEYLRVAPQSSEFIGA

Sequence of EGFR (P00533 whole entry, looked up): as above

Structure (SMILES) | inhibition (EGFR) [%] | inhibition (EGFR (Hamster)) [%]
CC(C)(C)c1cc(O)cc(-c2ccc(CO)cc2)c1 | 0 | 
O=C(NCc1ccccc1)c1ccc(-c2ccc(-c3ccccc3)cc2O)cc1 | 0 | 
COCOc1cc(-c2ccccc2)ccc1-c1ccc(C(=O)OCC(C)CC(C)(C)C)cc1 (centres undefined) | 0 | 
COC(=O)c1ccc(-c2ccc(C(C)(C)C)cc2O)cc1 |  | 0
CC(C)(C)c1cc(O)cc(-c2ccc(C(=O)NCc3ccccc3)cc2)c1 | 0 | 
COCOc1cc(C(C)(C)C)ccc1-c1ccc(C(=O)NCc2ccccc2)cc1 | 0 | 
COCOc1cc(C(C)(C)C)ccc1-c1ccc(C(=O)OC)cc1 | 0 | 
COC(=O)c1ccc(-c2ccc(-c3ccccc3)cc2O)cc1 | 14 | 
CC(C)(C)c1ccc(-c2ccc(C(=O)O)cc2)c(O)c1 | 0 | 0
COCOc1cc(-c2ccccc2)ccc1-c1ccc(C(=O)NCc2ccccc2)cc1 | 0 | 
O=C(NCc1ccccc1)c1ccc(-c2cccc(-c3ccccc3)c2O)cc1 | 0 | 0
COC(=O)c1ccc(-c2cc(O)cc(C(C)(C)C)c2)cc1 |  | 0
